# Data taken from article PMC7238232, “Acamprosate Is a Substrate of the Human Organic Anion Transporter (OAT) 1 without OAT3 Inhibitory Properties: Implications for Renal Acamprosate Secretion and Drug–Drug Interactions” (Pharmaceutics, 2020).
# Key:
# [1] = biological target: T1, OAT3 (Homo sapiens, UniProt Q8TCC7); assay: Acamprosate intracellular uptake in HEK293-Flp-In OAT3 cells (LC/MS-MS); format: cell-based; conditions: 200 µM acamprosate; 10 min; Lab. 1
# T1 sequence (Q8TCC7 1-542): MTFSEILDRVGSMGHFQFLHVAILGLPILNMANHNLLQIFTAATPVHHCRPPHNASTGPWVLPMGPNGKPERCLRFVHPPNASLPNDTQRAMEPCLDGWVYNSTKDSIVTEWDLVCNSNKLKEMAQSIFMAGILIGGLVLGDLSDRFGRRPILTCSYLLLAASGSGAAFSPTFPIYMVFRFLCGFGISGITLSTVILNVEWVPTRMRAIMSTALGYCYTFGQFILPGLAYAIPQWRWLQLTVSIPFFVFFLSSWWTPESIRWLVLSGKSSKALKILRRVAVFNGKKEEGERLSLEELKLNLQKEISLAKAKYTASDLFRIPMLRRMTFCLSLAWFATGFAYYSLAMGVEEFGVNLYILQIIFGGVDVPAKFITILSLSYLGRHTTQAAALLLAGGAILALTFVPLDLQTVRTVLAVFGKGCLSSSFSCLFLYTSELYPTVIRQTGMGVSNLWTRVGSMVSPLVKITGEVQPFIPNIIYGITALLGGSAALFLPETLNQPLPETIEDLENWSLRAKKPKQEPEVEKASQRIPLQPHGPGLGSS
# Method: The experiments were done on cells cultured in 24-well plates in Lab. 1. For the time-dependent uptake, the experiment was initiated by replacing the incubation buffer with 200 µL prewarmed 200 µM solution of acamprosate in uptake buffer. The plates were incubated in an orbital plate shaker at 37 °C and 100 rpm for 5, 15, 30, 45, 60, or 90 min and experiments were stopped by washing with 3 × 500 µL ice-cold buffer. […] The plates were incubated in an orbital plate shaker (Incubating microplate shaker from VWR International AB, Stockholm, Sweden) at 37 °C and 100 rpm for 10 min (time point at which substrate uptake was within the linear range) and experiments were stopped by washing with 3 × 500 µL∙well^−1 ice-cold buffer. The cells were then lysed with 200 µL 50 nM warfarin in 60:40 acetonitrile (ACN):water (IS solution) and mixed thoroughly. The samples were moved to 96-well LC/MS-MS plates. The wells from the uptake experiment were rinsed again with 200 µL IS solution and the resulting volumes were added to the corresponding well on the same 96-well plate. […] The plates were covered with aluminum seals and centrifuged at 3500 rpm and 5 °C for 20 min and the amount of acamprosate in the supernatant was quantified by LC/MS-MS.
# Acamprosate was quantified in Lab. […] Quantification was done by multiple reaction monitoring of parent and daughter ions. […]
# [2] = biological target: T2, OAT1 (Homo sapiens, UniProt Q4U2R8); assay: Acamprosate intracellular uptake and inhibition of uptake in HEK293-Flp-In OAT1 cells (LC/MS-MS); format: cell-based; parameters: expressed in transfected cells; host or cells: HEK293-Flp-In
# T2 sequence (Q4U2R8 1-563): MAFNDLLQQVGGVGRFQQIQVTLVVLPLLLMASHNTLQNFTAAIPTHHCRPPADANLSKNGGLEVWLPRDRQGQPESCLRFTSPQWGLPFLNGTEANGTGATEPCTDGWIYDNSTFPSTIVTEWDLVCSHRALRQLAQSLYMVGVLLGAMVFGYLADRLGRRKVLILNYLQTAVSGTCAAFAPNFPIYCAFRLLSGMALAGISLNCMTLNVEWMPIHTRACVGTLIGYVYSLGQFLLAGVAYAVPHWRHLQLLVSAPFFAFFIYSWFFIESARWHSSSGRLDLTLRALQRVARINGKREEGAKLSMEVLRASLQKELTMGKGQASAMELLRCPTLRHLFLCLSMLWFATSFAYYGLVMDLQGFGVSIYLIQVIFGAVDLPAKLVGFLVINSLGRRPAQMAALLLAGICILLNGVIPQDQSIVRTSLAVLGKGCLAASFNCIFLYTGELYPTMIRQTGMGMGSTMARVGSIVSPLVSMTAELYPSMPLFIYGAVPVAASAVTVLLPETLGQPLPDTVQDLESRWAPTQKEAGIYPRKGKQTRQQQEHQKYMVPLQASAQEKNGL
# Excerpt: The obtained intracellular amounts (pmol) were normalized to the assay time (min) and cell surface area (cm^2) or protein amount (mg protein) to obtain a term hereafter referred to as uptake rate. The uptake rate of acamprosate as a function of concentration was fitted to a Michaelis–Menten type equation which includes a saturable and a non-saturable uptake component, (1) V=Vmax · [S]/Km +[S]+P · [S] where V is the substrate uptake rate; Vmax is the maximal uptake rate; P is a constant related to non-saturable apparent uptake, i.e., factors such as passive diffusion, unspecific binding and residual compound present after washing steps, and [S] is the substrate concentration (µM). […] Assuming competitive interaction, equilibrium dissociation constants, Ki, were calculated from the IC50 value for each substrate/inhibitor pair, at substrate Km, using the Cheng–Prusoff equation [24].
# [3] = 200 µM acamprosate, 10 min, Lab. 1
smiles,measurement,setting,value
"CC(=O)NCCCS(=O)(=O)O [acamprosate, acetylhomotaurinate]",acamprosate uptake in OAT3 expressing cells compared to mock cells,[1],similar
same,acamprosate uptake in OAT1 expressing cells compared to mock and OAT3 expressing cells,[2]; [3],statistically significantly higher
same,acamprosate uptake rate in OAT1 cells relative to mock-transfected cells,[2]; [3],approximately 20 fold
same,"P, non-saturable apparent uptake constant","[2]; HEK293-Flp-In OAT1 cells, Lab. 1",0.35 ± 0.04 µL∙mg protein^−1∙min^−1
same,uptake by OAT1 as compared to OAT3,[2]; criterion of relatively OAT1-specific substrate,at least 5 ×
